Data from the supplement of paper PMC11451515.

What was measured:
Assay in all cases: AUC of viability dose-response curve (% viability x log10 dose units); higher = less sensitive
Conditions in all cases: 48 h
SEM cells = system: SEM cells
Outline: (§1)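 Viability of medium-adapted leukemia cells was measured by CellTiter-Glo One luminescence after 48 h at 37°C with library compounds in DMSO. Doses were 11 threefold steps from 47 μM to 0.79 nM, in 1536-well plates at 500 or 1000 cells/well. Signals were normalised per plate to DMSO and cell-free wells and fitted with a four-parameter log-logistic model on log10 dose. Area under the curve was integrated by trapezoidal rule, with curves exceeding full viability scaled and failed quality-control curves removed.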

P12-Ichikawa = system: P12-Ichikawa
Outline: as §1

NOMO1 = system: NOMO1
Outline: as §1

[1] = RPMI 5 mM glucose + 10% dialyzed FBS

Structure (SMILES)	AUC of viability dose-response curve (SEM cells; HPLM + 10% dialyzed FBS)	AUC of viability dose-response curve (SEM cells; RPMI 5 mM glucose + 10% FBS)	AUC of viability dose-response curve (SEM cells; [1])	AUC of viability dose-response curve (P12-Ichikawa; HPLM + 10% dialyzed FBS)	AUC of viability dose-response curve (P12-Ichikawa; RPMI 5 mM glucose + 10% FBS)	AUC of viability dose-response curve (P12-Ichikawa; [1])	AUC of viability dose-response curve (NOMO1; HPLM + 10% dialyzed FBS)	AUC of viability dose-response curve (NOMO1; RPMI 5 mM glucose + 10% FBS)	AUC of viability dose-response curve (NOMO1; [1])
C[S+](=O)([O-])c1ccc(Oc2cc(F)cc(C#N)c2)c2c1[C@H](O)C(F)(F)C2	467	459	467	467	469	472	455	462	448
CC(C)(C)[C@H](NC(=O)c1ccc(N)c(Cl)c1)C(=O)N1CCC[C@H]1C(=O)N[C@H](C#N)CC(=O)O	429	470	451	377	387	419	359	343	354
NC(=O)Nc1cc(-c2cccc(F)c2)sc1C(=O)N[C@H]1CCCNC1	188	196	169	345	325	330	314	335	324
C=CCc1ccc(O)c(-c2ccc(O)c(CC=C)c2)c1	377	308	345	251	331	319	419	388	382
Cn1cc(C[C@@H](N)C(=O)O)c2ccccc21	461	406	467	467	472	469	449	448	440
NC(=O)c1ncn([C@@H]2O[C@H](CO)[C@@H](O)[C@H]2O)c1O	473	474	457	464	463	464	465	468	460
Cc1c(C)c2c(c(C)c1O)CCC(C)(COc1ccc(CC3SC(=O)NC3=O)cc1)O2 (configuration not stated)	467	462	471	477	477	462	466	466	454
CCOC1=CC=CC=C1N\2C(=O)C3=C(C=CC=C3)\N=C2C(C)N4CCN(CC4)C(=O)COC5=CC=C(Cl)C=C5 (configuration not stated)	323	280	297	303	327	320	304	330	357
NC(=O)NO	326	362	332	401	393	367	359	340	347
Cc1noc(-c2ccc(CSCCC(=O)O)cc2)c1NC(=O)OC(C)c1ccccc1Cl (configuration not stated)	453	433	471	464	428	437	468	457	432
C[C@]12CCC\3=C\4CCC(=O)\C=C4CC[C@H]3[C@@H]1CC[C@@]2(O)CC#N	437	445	451	473	466	468	436	468	454
CC[C@]1(O)C[C@@H]2CN(CCc3c([nH]c4ccccc34)[C@@](C(=O)OC)(c3cc4c(cc3OC)N(C)[C@H]3[C@@](O)(C(N)=O)[C@H](O)[C@]5(CC)C=CCN6CC[C@]43[C@@H]65)C2)C1	250	217	258	231	218	263	223	259	278
COc1cc(C(=O)NS(=O)(=O)c2ccccc2C)ccc1Cc1cn(C)c2ccc(NC(=O)OC3CCCC3)cc12	323	338	319	411	380	383	371	378	384
CC(C)[C@H](N)C(=O)OCCOC[N]1C=NC2=C1\N=C(N)/NC2=O	467	457	465	475	450	458	457	459	474
CC(NCCc1ccc(O)cc1)C(O)c1ccc(O)cc1 (configuration not stated)	412	452	413	465	469	460	459	446	451
CCOC(=O)Nc1ccc(NCc2ccc(F)cc2)nc1N	467	466	461	456	451	464	439	469	469
OC1=CC2=C(C(=C1)O)C(=O)\C(=C(/O2)C3=CC(=C(O)C=C3)O)O	454	470	454	469	471	469	459	465	469
CC/1=C(\O)C(=O)\C=C2/C1=C/C=C3\[C@@]2(C)CC[C@@]4(C)[C@@H]5C[C@@](C)(CC[C@]5(C)CC[C@]34C)C(O)=O	362	355	341	386	360	346	366	360	363
COc1cc(N2CCC(N(C)C)CC2)ccc1Nc1ncc(Cl)c(Nc2ccccc2P(C)(C)=O)n1	288	294	287	338	361	380	333	374	375

Structure (SMILES)	AUC of viability dose-response curve (SEM cells; HPLM + 10% dialyzed FBS)	AUC of viability dose-response curve (SEM cells; RPMI 5 mM glucose + 10% FBS)	AUC of viability dose-response curve (SEM cells; [1])	AUC of viability dose-response curve (P12-Ichikawa; HPLM + 10% dialyzed FBS)	AUC of viability dose-response curve (P12-Ichikawa; RPMI 5 mM glucose + 10% FBS)	AUC of viability dose-response curve (P12-Ichikawa; [1])	AUC of viability dose-response curve (NOMO1; HPLM + 10% dialyzed FBS)	AUC of viability dose-response curve (NOMO1; RPMI 5 mM glucose + 10% FBS)	AUC of viability dose-response curve (NOMO1; [1])
CCOC(=O)/C=C/[C@H](C[C@@H]1CCNC1=O)NC(=O)[C@@H](CC(=O)[C@@H](NC(=O)c1cc(C)on1)C(C)C)Cc1ccc(F)cc1	452	463	454	466	459	450	471	469	440
CN(C)C(=O)C(CCN1CCC(O)(c2ccc(Cl)cc2)CC1)(c1ccccc1)c1ccccc1	445	436	449	460	444	444	448	445	436
OCc1ccc(-c2ccc(-c3ccc(CO)s3)o2)s1	450	386	453	429	429	415	437	432	428
COc1cc(CNC(=O)CCCC/C=C/C(C)C)ccc1O	343	310	329	287	322	305	380	368	399
CC(C)C[C@H](NC(=O)[C@@H](O)[C@H](N)Cc1ccccc1)C(=O)O	453	455	454	463	447	452	451	447	439
c1ccc(-c2oc3ncnc(NC[C@@H]4CCCO4)c3c2-c2ccccc2)cc1	468	463	467	461	454	455	454	467	454
OCCC#Cc1nc(-c2ccc(F)cc2)c(-c2ccncc2)n1CCCc1ccccc1	475	467	456	476	467	468	463	465	472
CN1CCN(CCCN2c3ccccc3Sc3ccc(C(F)(F)F)cc32)CC1	447	451	463	426	423	456	379	357	384
N#C[C@H](O[C@@H]1O[C@H](CO[C@@H]2O[C@H](CO)[C@@H](O)[C@H](O)[C@H]2O)[C@@H](O)[C@H](O)[C@H]1O)c1ccccc1	462	452	452	454	446	427	454	435	448
OC[C@H]1O[C@@H](Oc2cc(O)cc(/C=C/c3ccc(O)cc3)c2)[C@H](O)[C@@H](O)[C@@H]1O	451	433	429	449	465	473	397	426	416
CN1CCN(C(=O)O[C@H]2c3nccnc3C(=O)N2c2ccc(Cl)cn2)CC1	453	450	445	468	461	470	451	467	464
OCCn1cc(-c2cnc3nnn(Cc4ccc5ncccc5c4)c3n2)cn1	430	389	430	457	455	459	440	471	456
COc1cc(C)c(Sc2cnc(NC(=O)c3ccc(CNC(C)C(C)C)cc3)s2)cc1C(=O)N1CCN(C(C)=O)CC1 (configuration not stated)	386	436	425	448	418	443	430	460	445
O=C1NC(=O)/C(=C/c2ccc(-c3ccc(F)cc3O)o2)S1	445	419	427	447	420	427	430	443	422
N[S+](=O)([O-])OC[C@@H]1C[C@@H](n2ccc3c(N[C@H]4CCc5ccccc54)ncnc32)C[C@@H]1O	352	346	339	373	352	352	319	300	313
CON(C)C(=O)N1/N=C(S[C@@]1(CCCN)C2=CC=CC=C2)/C3=CC(=CC=C3F)F	162	171	193	183	177	206	242	211	226
CCOc1ccc(Cc2cc([C@@H]3O[C@H](CO)[C@@H](O)[C@H](O)[C@H]3O)ccc2Cl)cc1	465	450	468	459	466	469	470	464	476
NC/1=N/C(=O)N(/C=N1)[C@@H]2O[C@H](CO)[C@@H](O)[C@H]2O	406	399	322	422	437	428	430	421	396
CC(O)C1C2C(C)\C(=C(/N2C1=O)C(O)=O)SC3CNC(C3)C(=O)N(C)C (configuration not stated)	395	407	438	432	392	416	416	404	396
